For assay [1], the system named is freshly isolated hepatocytes. The assay is described as follows: Effects of glucagon and analogues on freshly isolated hepatocyte cAMP production. The class given is cell-based, rat. As to conditions: 10^−7M, n=2, FIG. 3, compared to analogue 357 or glucagon. As to the method: All experimental procedures were performed under isoflurane (2.5%) anesthesia according to an experimental protocol approved by Ste-Justine Hospital (Montreal) animal care committee. […] The animal was perfused through the heart to remove a maximal amount of blood from the liver (acquire a light brown color). A catheter (PE-90) was then inserted in the portal vein and the liver further perfused to eliminate any trace of blood. The hepatic artery was also cannulated (PE-50) and perfused. The liver was then carefully removed from the abdominal cavity and placed into a 250 ml beaker. Digesting HEPES buffer containing 9650U collagenase and 20U elastase at 37° C. was placed into the beaker and circulated in a closed loop via the catheters for 10 minutes at maximal speed. The buffer was replaced with a fresh solution of collagenase and elastase and perfusion continues for 10 additional minutes. […]
Stimulation studies were performed at a concentration of 1 million cells per tube; 5 minutes of pre-treatment with 0.1 mM IBMX, with or without glucagon agonists (10^−7M) compared to treatment with glucagon (10^−7M). […] The cAMP levels in the tubes were determined using a radioimmunoassay kit (Amersham DPC kit). The data are expressed as pmol cAMP/million cells.
For orientation: cAMP levels reflect the balance of adenylyl cyclase and phosphodiesterase activity.

Assay [2] relates to whole anterior pituitary culture. The assay is described as follows: cAMP production stimulated by GRF analogues in whole anterior pituitary culture. The class given is cell-based. The settings on record: 10^−6 M, compared to analogue 356, FIG. 6. The source says:
For comparison, a DPPIV resistant analogue of GRF (analogue 280) was shown.

The subject of the next assay is RINm5F cells. The assay is described as follows: Dose response curves of GLP-1 analogues on cAMP production in RINm5F cells. As to conditions: n=3, FIG. 4. The class given is cell-based, rat. As to the method:
RINm5F cells (ATCC # CRL-2058) were grown according to the manufacturer's specifications. Cells from […] confluent flasks were trypsinized and counted. 20 000 cells/well were seeded in 96-well plate (White Costar plate with clear bottom) in 100 μl media. Cells were grown four days past confluence before being using for experiments.
Stock solutions of agents tested were prepared in DDH2O+0.1% BSA at a concentration of 1 mM (correcting for peptide purity and peptide content when available) immediately prior to the beginning of the assay. From the stock solutions, 2× dilutions (2×10^−12 M to 2×10^−5 M) were made in RPMI medium containing 0.5 mM IBMX. Cell culture media was gently removed from wells. Cells were then washed once with RPMI containing 0.5 mM IBMX and then pre-incubated in 100 μl RPMI/0.5 mM IBMX at 37° C. for 10 minutes. After pre-incubation, 100 μl of each 2× dilutions were added to wells in triplicates and incubated at 37° C. for 40 minutes. At the end of incubation, the supernatant was collected and assayed for cAMP using a radioimmunoassay kit (DPC). Radioactive counts were transformed into cAMP amounts using a standard curve. cAMP values were corrected for total protein content in the corresponding wells determined by Coomassie blue assay. cAMP values were expressed as mean±SEM in pmol/mg protein (FIG. 2). […]

Another assay deals with C57BL/ks db/db mice. Put plainly: Glucose levels after subcutaneous injection in fasted and re-fed db/db mice. In kind it is in vivo. The settings on record: 25 μg/mice (500 μg/kg) subcutaneous, 30 minutes of feeding subsequent to overnight fasting, compared to native GLP-1, FIG. 5.

Results on 4 substances are retold here after patent US20050059605A1, “Chemically modified metabolites of regulatory peptides and methods of producing and using same” (priority 2003, published 2005).

Where no end group is shown, it is not given here.

Consider “Glucagon (3-29) amide (QGTFTSDYSKYLDSRRAQDFVQWLMNT-NH2; UniProt P01275 55-81, looked up, fragment) [Compound 357, glucagon analogue lacking the His-Ser dipeptide, reference compound]”, for which the “intracellular cAMP levels” value in assay [1] is listed as “negligible response”. For “4-Methoxyphenethylamine-mGly-GRF-1 (3-29) amide [Compound 358]”, the cAMP response entry in assay [2] was “significantly greater cAMP response”. Consider “4-Methoxyphenethylamine-mGly-Glucagon (3-29) amide [Compound 361]”, for which the “intracellular cAMP levels” value in assay [1] was “significantly higher intracellular cAMP levels”. Take “4-Methoxyphenetylamine-mGly-GLP-1 (9-36) amide [Compound 288]”: the cAMP production entry with RINm5F cells is “increased CAMP production”. The “glucose levels (hypoglycemic response)” value in the assay with C57BL/ks db/db mice is on record as “more significant hypoglycemic response”.
